{"source": "patent US20230047825A1", "about": "“ANTIMICROBIAL PEPTIDES” (priority 2019, published 2023)", "key": {"[1]": {"assay": "Maximum Tolerated Dose (MTD) assessment, IV TID q8h: mortality, body weight, clinical observations", "format": "in vivo, mouse", "design": "key to Irritability / Hyperactivity / Inc. Startle / Inc. Touch / Dec. Startle Response / Dec. Touch Response / Inc. Exploration / Dec. Exploration / Pinna / Placing / Tremor / Dec. Spont. Activity / Straub Tail / Reactivity / Righting / Ataxia / Convulsion C.T.C-T / Low Limb Post / Abdominal Tone / Limb Tone / Grip Strength / Salivation F.V. / Lacrimation / Diarrhea / Body Temperature / Piloerection / Inc. Palpebral Size / Dec. Palpebral Size / Others / Death: “−” no effects; “±”: Slight to moderate effects; +: Severe effects; “C.”: Cyanosis; “D.”: Depth; E: Edema", "conditions": "for Dec. Exploration / Dec. Startle Response / Dec. Touch Response / Hyperactivity / Inc. Exploration / Inc. Startle / Inc. Touch / Irritability / Pinna / Placing: BEHAVIORAL; for Ataxia / Convulsion C.T.C-T / Dec. Spont. Activity / Grip Strength / Limb Tone / Low Limb Post / Reactivity / Righting / Straub Tail / Tremor / Abdominal Tone: NEUROLOGIC", "protocol": "Tolerability analysis was conducted to determine the upper limit of D-PLEUROCIDIN-KR dosage. Test article solutions were intravenously (IV) administered to immunocompetent ICR mice with the dose schedule and concentrations indicated in the study design in the table below.\nThe animals were not infected. Doses were IV administered thrice (TID) with 8 h intervals (q8h) between doses. Animals were humanely euthanized after 3 days of the last treatment or at humane endpoints.\nThe MTD assessment was performed with immunocompetent female ICR mice, weighing 22 f 2 g. All animals were specific pathogen free.\nTest articles were administered to animals by IV injections following the dose schedule, volumes, and concentrations indicated the Table above for MTD study. […] Animals were humanely euthanized if severe acute toxicity was observed during the experimental period.\nThe adverse effects were monitored at 5 minutes via cage-side observation after each subsequent IV administration on Day 1. Animals were observed again for mortality at 72 h after the last treatment. Body weights were recorded before each treatment and at 72 h after the last treatment. If overt toxicity was observed after the 1st or 2nd dose of a group, the 2nd or 3rd dose of that group was not administered.\nAny adverse events observed were summarized. List of scores from observation assessments were also recorded."}, "five S. aureus strains": {"tested_on": "five S. aureus strains", "conditions": "Mueller Hinton Broth", "protocol": "Two broth mediums were used, Mueller Hinton Broth and RPMI 1640+5% fetal bovine serum. Test substances were evaluated in 11-point titrations and performed in duplicate.\nThe direct colony suspension method was used to prepare inoculated broth. Isolated colonies were taken from an 18-24 h culture plate. Optical density measurements (OD620nm) were used to estimate the bacterial density. […] The stock solutions were diluted by 2-fold serial titrations with their respective vehicles for a total of 11 concentrations.\nA 4 μL aliquot of each dilution was added to 196 μL of broth medium seeded with the organism in wells of a sterilized 96 well polypropylene plate (Nunc™ 249949) using aluminum foil as cover. The final bacterial count was 2 to 8×10^5 CFU/mL. […] The final test article concentration range was 32 to 0.0313 μg/mL.\nEach test substance dilution was evaluated in duplicate on one test occasion. […] Plates were incubated at 35-37° C. for 18 h. The test plates were visually examined and each well was visually scored for growth or complete inhibition of growth. The MIC value was recorded."}, "[2]": {"conditions": "AUTONOMIC, 10 mg/kg IV, 5 minutes after 1st dosing, ICR mice, animals No. 1-4"}, "[3]": {"conditions": "5 mg/kg IV, 5 minutes after 1st dosing, ICR mice, animals No. 1-4"}, "[4]": {"conditions": "10 mg/kg IV, 5 minutes after 1st dosing, ICR mice, animals No. 1-4"}, "[5]": {"conditions": "10 mg/kg IV, 5 minutes after 1st dosing, ICR mice, animals No. 1-4, 10 mg/kg"}}, "note": "Where a SMILES comes first, the peptide text is derived from it."}
{"molecule": "CC(C)C[C@@H](NC(=O)[C@@H](Cc1ccc(O)cc1)NC(=O)[C@@H](Cc1c[nH]cn1)NC(=O)[C@H](NC(=O)[C@@H](CC(C)C)NC(=O)[C@@H](C)NC(=O)[C@@H](C)NC(=O)[C@@H](CCCNC(=N)N)NC(=O)CNC(=O)[C@H](NC(=O)[C@@H](Cc1c[nH]cn1)NC(=O)[C@@H](CCCNC(=N)N)NC(=O)CNC(=O)[C@H](NC(=O)[C@@H](Cc1c[nH]cn1)NC(=O)[C@@H](C)NC(=O)[C@@H](C)NC(=O)[C@@H](CCCNC(=N)N)NC(=O)[C@@H](CCCNC(=N)N)NC(=O)[C@@H](Cc1ccccc1)NC(=O)[C@@H](Cc1ccccc1)NC(=O)[C@@H](CO)NC(=O)CNC(=O)[C@@H](Cc1c[nH]c2ccccc12)NC(=O)CN)C(C)C)C(C)C)[C@H](C)O)C(N)=O", "note": "[D-pleurocidin-KR] (HELM PEPTIDE1{G.[dW].G.[dS].[dF].[dF].[dR].[dR].[dA].[dA].[dH].[dV].G.[dR].[dH].[dV].G.[dR].[dA].[dA].[dL].[dT].[dH].[dY].[dL].[am]}$$$$V2.0; N-terminus assumed)", "values": [{"measurement": "Dec. Palpebral Size", "setting": "[1]; [2]", "result": "−"}, {"measurement": "Diarrhea", "setting": "[1]; [2]", "result": "−"}, {"measurement": "Inc. Palpebral Size", "setting": "[1]; [2]", "result": "−"}, {"measurement": "Lacrimation", "setting": "[1]; [2]", "result": "−"}, {"measurement": "Others", "setting": "[1]; [2]", "result": "E"}, {"measurement": "Piloerection", "setting": "[1]; [2]", "result": "−"}, {"measurement": "Respiration", "setting": "[1]; [2]", "result": "D±"}, {"measurement": "Salivation F.V.", "setting": "[1]; [2]", "result": "−"}, {"measurement": "Skin Color", "setting": "[1]; [2]", "result": "C±"}, {"measurement": "Death", "setting": "[1]; AUTONOMIC, 30 mg/kg IV, 5 minutes after 1st dosing, ICR mice, animals No. 1-4", "result": "+"}, {"measurement": "Dec. Exploration", "setting": "[1]; [3]", "result": "−"}, {"measurement": "Dec. Startle Response", "setting": "[1]; [3]", "result": "−"}, {"measurement": "Dec. Touch Response", "setting": "[1]; [3]", "result": "−"}, {"measurement": "Hyperactivity", "setting": "[1]; [3]", "result": "−"}, {"measurement": "Inc. Exploration", "setting": "[1]; [3]", "result": "−"}, {"measurement": "Inc. Startle", "setting": "[1]; [3]", "result": "−"}, {"measurement": "Inc. Touch", "setting": "[1]; [3]", "result": "−"}, {"measurement": "Irritability", "setting": "[1]; [3]", "result": "−"}, {"measurement": "Pinna", "setting": "[1]; [3]", "result": "−"}, {"measurement": "Placing", "setting": "[1]; [3]", "result": "−"}, {"measurement": "Hyperactivity", "setting": "[1]; [4]", "result": "−"}, {"measurement": "Inc. Exploration", "setting": "[1]; [4]", "result": "−"}, {"measurement": "Inc. Startle", "setting": "[1]; [4]", "result": "−"}, {"measurement": "Inc. Touch", "setting": "[1]; [4]", "result": "−"}, {"measurement": "Irritability", "setting": "[1]; [4]", "result": "−"}, {"measurement": "Dec. Exploration", "setting": "[1]; [5]", "result": "± and +"}, {"measurement": "Dec. Startle Response", "setting": "[1]; [5]", "result": "− and ±"}, {"measurement": "Dec. Touch Response", "setting": "[1]; [5]", "result": "± and +"}, {"measurement": "Pinna", "setting": "[1]; [5]", "result": "± and +"}, {"measurement": "Placing", "setting": "[1]; [5]", "result": "± and −"}, {"measurement": "Ataxia", "setting": "[1]; [3]", "result": "−"}, {"measurement": "Convulsion C.T.C-T", "setting": "[1]; [3]", "result": "−"}, {"measurement": "Dec. Spont. Activity", "setting": "[1]; [3]", "result": "−"}, {"measurement": "Grip Strength", "setting": "[1]; [3]", "result": "−"}, {"measurement": "Limb Tone", "setting": "[1]; [3]", "result": "−"}, {"measurement": "Low Limb Post", "setting": "[1]; [3]", "result": "−"}, {"measurement": "Reactivity", "setting": "[1]; [3]", "result": "−"}, {"measurement": "Righting", "setting": "[1]; [3]", "result": "−"}, {"measurement": "Straub Tail", "setting": "[1]; [3]", "result": "−"}, {"measurement": "Tremor", "setting": "[1]; [3]", "result": "−"}, {"measurement": "Abdominal Tone", "setting": "[1]; 5 mg/kg IV, 5 minutes after 1st dosing, ICR mice, animals No. 1-4, 5 mg/kg", "result": "− and ±"}, {"measurement": "Ataxia", "setting": "[1]; [4]", "result": "±"}, {"measurement": "Convulsion C.T.C-T", "setting": "[1]; [4]", "result": "−"}, {"measurement": "Dec. Spont. Activity", "setting": "[1]; [4]", "result": "±"}, {"measurement": "Limb Tone", "setting": "[1]; [4]", "result": "+"}, {"measurement": "Reactivity", "setting": "[1]; [4]", "result": "−"}, {"measurement": "Righting", "setting": "[1]; [4]", "result": "−"}, {"measurement": "Straub Tail", "setting": "[1]; [4]", "result": "−"}, {"measurement": "Tremor", "setting": "[1]; [4]", "result": "−"}, {"measurement": "Abdominal Tone", "setting": "[1]; [5]", "result": "− and + and ±"}, {"measurement": "Grip Strength", "setting": "[1]; [5]", "result": "± and −"}, {"measurement": "Low Limb Post", "setting": "[1]; [5]", "result": "± and −"}, {"measurement": "in vivo therapeutic index", "setting": "[1]; before dose optimisation, tolerated dose vs effective dose", "result": "approximately 20 fold"}, {"measurement": "MIC against the five tested S. aureus strains", "setting": "five S. aureus strains", "result": 2, "unit": "µg/mL"}]}
